Assay results reported in ChEMBL document CHEMBL1201862, “PubChem BioAssay data set” (2004).
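A five-concentration, 48-hour dose response in 96-well plates underlies each endpoint, interpolated linearly between surrounding concentrations. Here, GI50 denotes the concentration required for 50% inhibition of growth.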 Calls of active or inactive are those of the source. No stated cut-off is given here; in the data, active = GI50 up to about 1.1 µM and inactive = higher.

Legend:
Assay in all cases: DTP human tumour cell line panel, 48 h
[1] = test system: MDA-MB-231
[2] = test system: PC-3
[3] = test system: SNB-75
[4] = test system: DU-145
[5] = test system: SK-MEL-2
[6] = test system: CCRF-CEM
[7] = test system: SW-620
[8] = test system: T47D
[9] = test system: SK-MEL-28
[10] = test system: Malme-3M
[11] = test system: KM12
[12] = test system: ACHN
[13] = test system: OVCAR-3
[14] = test system: SN12C
[15] = test system: K562
[16] = test system: M14
[17] = test system: NCI-H23
[18] = test system: CAKI-1
[19] = test system: A498
[20] = test system: MDA-MB-435
[21] = test system: EKVX
[22] = test system: UO-31
[23] = test system: NCI-H460
[24] = test system: MOLT-4
[25] = test system: 786-0
[26] = test system: HT-29
[27] = test system: TK-10
[28] = test system: Hs-578T
[29] = test system: MDA-N
[30] = test system: SF-295
[31] = test system: MCF7
[32] = test system: SR
[33] = test system: SK-OV-3
[34] = test system: NCI-H522
[35] = test system: NCI/ADR-RES
[36] = test system: UACC-257
[37] = test system: OVCAR-5
[38] = test system: LOX IMVI
[39] = test system: SK-MEL-5
[40] = test system: HOP-62
[41] = test system: HCT-15
[42] = test system: COLO 205
[43] = test system: SF-539
[44] = test system: NCI-H226
[45] = test system: HCC 2998
[46] = test system: U-251
[47] = test system: OVCAR-8
[48] = test system: RXF 393
[49] = test system: HL-60
[50] = test system: SF-268
[51] = test system: RPMI-8226
[52] = test system: IGROV-1
[53] = test system: OVCAR-4
[54] = test system: HOP-92
[55] = test system: UACC-62
[56] = test system: BT-549
[57] = test system: A549
[58] = test system: HCT-116
[59] = test system: SNB-19

With `CCCCCCCCCCCCCCCCNC(=O)/C(O)=C/C(=O)c1ccc(C)cc1` the GI50 [1] was > 10 µM (inactive), the GI50 [2] was 3.32 µM (inactive) and the GI50 [3] was > 10 µM (inactive). The GI50 [4] was > 10 µM (inactive), the GI50 [5] was > 10 µM (inactive) and the GI50 [6] was > 10 µM (inactive). For the same compound, the GI50 [7] was > 10 µM (inactive), the GI50 [8] was > 10 µM (inactive) and the GI50 [9] was > 10 µM (inactive). The GI50 [10] was > 10 µM (inactive), the GI50 [11] was > 10 µM (inactive) and the GI50 [12] was > 10 µM (inactive). The GI50 [13] was > 10 µM (inactive), the GI50 [14] was > 10 µM (inactive) and the GI50 [15] was > 10 µM (inactive). The GI50 [16] was > 10 µM (inactive), the GI50 [17] was > 10 µM (inactive) and the GI50 [18] was > 10 µM (inactive). The GI50 [19] was > 10 µM (inactive), the GI50 [20] was > 10 µM (inactive) and the GI50 [21] was > 10 µM (inactive). The GI50 [22] was > 10 µM (inactive), the GI50 [23] was > 10 µM (inactive) and the GI50 [24] was > 10 µM (inactive). The GI50 [25] was > 10 µM (inactive), the GI50 [26] was > 10 µM (inactive) and the GI50 [27] was > 10 µM (inactive). The GI50 [28] was > 10 µM (inactive), the GI50 [29] was > 10 µM (inactive) and the GI50 [30] was > 10 µM (inactive). For the same compound, the GI50 [31] was > 10 µM (inactive), the GI50 [32] was > 10 µM (inactive) and the GI50 [33] was > 10 µM (inactive). For the same compound, the GI50 [34] was > 10 µM (inactive), the GI50 [35] was > 10 µM (inactive) and the GI50 [36] was > 10 µM (inactive). The GI50 [37] was > 10 µM (inactive), the GI50 [38] was > 10 µM (inactive) and the GI50 [39] was > 10 µM (inactive). For the same compound, the GI50 [40] was > 10 µM (inactive), the GI50 [41] was > 10 µM and the GI50 [42] was > 10 µM (inactive). The GI50 [43] was > 10 µM (inactive), the GI50 [44] was > 10 µM (inactive) and the GI50 [45] was > 10 µM (inactive). For the same compound, the GI50 [46] was > 10 µM (inactive), the GI50 [47] was > 10 µM (inactive) and the GI50 [48] was > 10 µM (inactive). For the same compound, the GI50 [49] was 8.05 µM (inactive), the GI50 [50] was > 10 µM (inactive) and the GI50 [51] was > 10 µM (inactive). For the same compound, the GI50 [52] was > 10 µM (inactive) and the GI50 [53] was > 10 µM (inactive).
In the case of `COc1ccc(/C=C(\C#N)c2ccccn2)cc1OC`, the GI50 [2] is reported as 22.8 µM (inactive), the GI50 [54] is reported as 17 µM (inactive) and the GI50 [3] is reported as 21.3 µM (inactive). The GI50 [4] was 32.1 µM (inactive), the GI50 [5] was 51.2 µM (inactive) and the GI50 [6] was 60.5 µM (inactive). For the same compound, the GI50 [7] was 56.1 µM (inactive), the GI50 [9] was 38.4 µM (inactive) and the GI50 [10] was 46.8 µM (inactive). For the same compound, the GI50 [11] was 53.1 µM (inactive), the GI50 [12] was 55.8 µM (inactive) and the GI50 [13] was 86.1 µM (inactive). The GI50 [14] was 53 µM (inactive), the GI50 [55] was 58.7 µM (inactive) and the GI50 [15] was 85.5 µM (inactive). For the same compound, the GI50 [16] was > 100 µM (inactive), the GI50 [17] was 43.7 µM (inactive) and the GI50 [56] was 18.6 µM (inactive). For the same compound, the GI50 [18] was 60.7 µM (inactive), the GI50 [21] was 5.4 µM (inactive) and the GI50 [22] was 29.8 µM (inactive). The GI50 [23] was 34.3 µM (inactive), the GI50 [24] was 57.4 µM (inactive) and the GI50 [25] was 43.9 µM (inactive). For the same compound, the GI50 [26] was 43 µM (inactive), the GI50 [27] was 63.7 µM (inactive) and the GI50 [29] was 42.4 µM (inactive). The GI50 [30] was 26.8 µM (inactive), the GI50 [31] was 17.9 µM (inactive) and the GI50 [32] was 33.8 µM (inactive). For the same compound, the GI50 [33] was 29.8 µM (inactive), the GI50 [57] was 41.5 µM (inactive) and the GI50 [34] was 39.8 µM (inactive). For the same compound, the GI50 [35] was 20.4 µM (inactive), the GI50 [58] was 31.7 µM (inactive) and the GI50 [36] was > 100 µM (inactive). For the same compound, the GI50 [37] was 51.4 µM (inactive), the GI50 [39] was 25.1 µM (inactive) and the GI50 [40] was 36.7 µM (inactive). The GI50 [41] was 32.2 µM, the GI50 [42] was 69.2 µM (inactive) and the GI50 [43] was 31.9 µM (inactive). For the same compound, the GI50 [44] was 27.2 µM (inactive), the GI50 [45] was 65.2 µM (inactive) and the GI50 [46] was 16.3 µM (inactive). The GI50 [47] was > 100 µM (inactive), the GI50 [48] was 23.7 µM (inactive) and the GI50 [49] was 27.1 µM (inactive). For the same compound, the GI50 [50] was 33 µM (inactive), the GI50 [51] was 45.7 µM (inactive) and the GI50 [52] was 51.2 µM (inactive). For the same compound, the GI50 [59] was 39.8 µM (inactive) and the GI50 [53] was 73.1 µM (inactive).
`COc1cc(N(Cc2ccc3oc(=O)c(-c4ccccc4)nc3c2)Cc2ccc3oc(=O)c(-c4ccccc4)nc3c2)cc(OC)c1OC` was tested, and the GI50 [1] was > 10 µM (inactive), the GI50 [2] was > 10 µM (inactive) and the GI50 [54] was > 10 µM (inactive). For the same compound, the GI50 [3] was > 10 µM (inactive), the GI50 [4] was > 10 µM (inactive) and the GI50 [5] was > 10 µM (inactive). The GI50 [6] was > 10 µM (inactive), the GI50 [7] was > 10 µM (inactive) and the GI50 [8] was > 10 µM (inactive). The GI50 [9] was > 10 µM (inactive), the GI50 [11] was > 10 µM (inactive) and the GI50 [12] was > 10 µM (inactive). For the same compound, the GI50 [13] was > 10 µM (inactive), the GI50 [14] was > 10 µM (inactive) and the GI50 [55] was > 10 µM (inactive). The GI50 [15] was > 10 µM (inactive), the GI50 [16] was > 10 µM (inactive) and the GI50 [17] was > 10 µM (inactive). The GI50 [18] was > 10 µM (inactive), the GI50 [20] was > 10 µM (inactive) and the GI50 [21] was > 10 µM (inactive). For the same compound, the GI50 [22] was > 10 µM (inactive), the GI50 [23] was > 10 µM (inactive) and the GI50 [24] was > 10 µM (inactive). The GI50 [25] was > 10 µM (inactive), the GI50 [26] was > 10 µM (inactive) and the GI50 [27] was > 10 µM (inactive). For the same compound, the GI50 [28] was > 10 µM (inactive), the GI50 [29] was > 10 µM (inactive) and the GI50 [30] was > 10 µM (inactive). For the same compound, the GI50 [31] was > 10 µM (inactive), the GI50 [32] was > 10 µM (inactive) and the GI50 [33] was > 10 µM (inactive). For the same compound, the GI50 [57] was > 10 µM (inactive), the GI50 [34] was > 10 µM (inactive) and the GI50 [35] was > 10 µM (inactive). The GI50 [58] was > 10 µM (inactive), the GI50 [36] was > 10 µM (inactive) and the GI50 [37] was > 10 µM (inactive). For the same compound, the GI50 [38] was > 10 µM (inactive), the GI50 [39] was > 10 µM (inactive) and the GI50 [40] was > 10 µM (inactive). For the same compound, the GI50 [41] was > 10 µM, the GI50 [42] was > 10 µM (inactive) and the GI50 [43] was > 10 µM (inactive). For the same compound, the GI50 [44] was > 10 µM (inactive), the GI50 [45] was > 10 µM (inactive) and the GI50 [46] was > 10 µM (inactive). For the same compound, the GI50 [47] was > 10 µM (inactive), the GI50 [48] was > 10 µM (inactive) and the GI50 [49] was > 10 µM (inactive). The GI50 [50] was > 10 µM (inactive), the GI50 [51] was > 10 µM (inactive) and the GI50 [52] was > 10 µM (inactive). For the same compound, the GI50 [59] was > 10 µM (inactive) and the GI50 [53] was > 10 µM (inactive).
